Laboratory results from publication PMC5623046, “A Simple PB/LIE Free Energy Function Accurately Predicts the Peptide Binding Specificity of the Tiam1 PDZ Domain” (Frontiers in Molecular Biosciences, 2017).
Where “and” joins values, the source holds several entries; their conditions need not be identical. Identical values can stand only once. Marks after values point to notes of the source that are not given here.

Molecular target: Syndecan-1 (Sdc1) peptide (Homo sapiens) (UniProt P18827)
Test: not given
Conditions: cited from earlier work

Sequence of Syndecan-1 (Sdc1) peptide (Homo sapiens) (P18827 23-310): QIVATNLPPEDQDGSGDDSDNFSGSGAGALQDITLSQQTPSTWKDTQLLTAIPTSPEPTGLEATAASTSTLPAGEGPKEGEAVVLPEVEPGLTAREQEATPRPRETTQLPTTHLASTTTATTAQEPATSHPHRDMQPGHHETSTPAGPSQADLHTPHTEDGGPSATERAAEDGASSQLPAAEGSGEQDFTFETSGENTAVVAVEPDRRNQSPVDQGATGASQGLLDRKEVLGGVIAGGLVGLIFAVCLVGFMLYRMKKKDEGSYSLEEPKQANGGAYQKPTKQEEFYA
Sequence of Tiam1 PDZ (Q13009 842-911): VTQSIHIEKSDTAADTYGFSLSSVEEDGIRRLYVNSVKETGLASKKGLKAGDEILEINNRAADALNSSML

| Substance | Kd |
| --- | --- |
| Tiam1 PDZ (from UniProt Q13009) | 26.9 µM |

Tested on: Tiam1 PDZ domain L915F
Test: not given
Conditions: relative to WT:Sdc1; ref Shepherd et al., [2011]; Liu et al., [2013]; cited from earlier work
Excerpt: (§1) Table 1 Tiam1-PDZ:peptide complexes and free energies used for model fitting. | column: Exp.^a

| Substance | Exp. relative binding free energy ΔΔG |
| --- | --- |
| ENQKEYFF [Caspr4, peptide corresponding to the C-terminus of Caspr4] | 0.48 kcal/mol |
| TKQEEFYACOOH [Sdc1, C-terminal peptide of Syndecan1, residues 303–310] | 0.65 kcal/mol |

Tested on: Tiam1 PDZ domain L911M
Test: not given
Conditions: relative to WT:Sdc1; ref Shepherd et al., [2011]; Liu et al., [2013]; cited from earlier work
Excerpt: as §1

| Substance | Exp. relative binding free energy ΔΔG |
| --- | --- |
| ENQKEYFF [Caspr4, peptide corresponding to the C-terminus of Caspr4] | -0.39 kcal/mol |
| TKQEEFYACOOH [Sdc1, C-terminal peptide of Syndecan1, residues 303–310] | 0.15 kcal/mol |

Tested on: Tiam1 PDZ domain K912E
Test: not given
Conditions: relative to WT:Sdc1; ref Shepherd et al., [2011]; Liu et al., [2013]; cited from earlier work
Excerpt: as §1

| Substance | Exp. relative binding free energy ΔΔG |
| --- | --- |
| ENQKEYFF [Caspr4, peptide corresponding to the C-terminus of Caspr4] | 0.46 kcal/mol |
| TKQEEFYACOOH [Sdc1, C-terminal peptide of Syndecan1, residues 303–310] | 0.97 kcal/mol |

Tested on: Tiam1 PDZ domain L920V
Test: not given
Conditions: relative to WT:Sdc1; ref Shepherd et al., [2011]; Liu et al., [2013]; cited from earlier work
Excerpt: Table 1 Tiam1-PDZ:peptide complexes and free energies used for model fitting. | column: Exp.^a || Tables 1, 2 list the 44 peptide and protein variants for which experimental binding data are available along with the corresponding binding free energy differences (ΔΔG) relative to the wildtype:Sdc1 complex (WT:Sdc1), taken as a reference. Notice that positions within each peptide ligand are numbered backwards from the C-terminus (“position 0”). For two complexes, experimental measurements were not available and ΔΔG was obtained in this work using rigorous alchemical free energy simulations (see below). Seventeen of the complexes involve Tiam1 mutations at one or more of four positions. These ...

| Substance | Exp. relative binding free energy ΔΔG |
| --- | --- |
| ENQKEYFF [Caspr4, peptide corresponding to the C-terminus of Caspr4] | -0.54 kcal/mol |
| TKQEEFYACOOH [Sdc1, C-terminal peptide of Syndecan1, residues 303–310] | 0.31 kcal/mol |

Same assay, conditions: strongest binding in the dataset; ref Shepherd et al., [2011]; Liu et al., [2013]; cited from earlier work

| Substance | Kd |
| --- | --- |
| ENQKEYFF [Caspr4, peptide corresponding to the C-terminus of Caspr4] | 10.8 µM |

Molecular target: T1, wildtype Tiam1 PDZ domain (WT) (Homo sapiens, UniProt Q13009)
T1 construct: The Tiam1 PDZ domain was purified by nickel-chelate (GE-Healthcare) and size-exclusion chromatography; His6 (N, cleaved yes); made in house; host or cells: Escherichia coli BL21(DE3)
Test: not given
Conditions: relative to WT:Sdc1; ref Shepherd et al., [2011]; Liu et al., [2013]; cited from earlier work
Excerpt: Table 1 Tiam1-PDZ:peptide complexes and free energies used for model fitting. | column: Exp.^a || Table 2 Tiam1-PDZ:peptide complexes and free energies not used for model fitting. | column: Exp.^a || Table 4 Alchemical free energy simulation (FEP) results. | column: Exp. || (+ 3 further places)

T1 sequence (Q13009 841-930 limits assumed): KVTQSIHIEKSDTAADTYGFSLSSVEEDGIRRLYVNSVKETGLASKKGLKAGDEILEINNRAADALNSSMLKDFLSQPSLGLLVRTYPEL

| Substance | Exp. relative binding free energy ΔΔG |
| --- | --- |
| YAARKFAK | ≥ 1.32^g kcal/mol |
| YAAYRYRA | ≥ 1.32^g kcal/mol |
| YAAKRTYV | ≥ 1.32^g kcal/mol |
| YAAQKHFH | ≥ 1.32^g kcal/mol |
| SSRKEYYA [Consensus] | 0.84 kcal/mol |
| ENQKEYFF [Caspr4, peptide corresponding to the C-terminus of Caspr4] | -0.21 kcal/mol |
| YAAEKYWA [peptide from a combinatorial library] | 0.72 kcal/mol |
| YAAKAFRF [peptide from a combinatorial library] | 1.17 kcal/mol |
| TKQEEFYACOOH [Sdc1, C-terminal peptide of Syndecan1, residues 303–310] | 0.00 kcal/mol |
| YAALIHKF | ≥ 1.32^g kcal/mol |
| YAAGRKHF | ≥ 1.32^g kcal/mol |

Tested on: Tiam1 PDZ domain L911M,K912E
Test: not given
Conditions: relative to WT:Sdc1; ref Shepherd et al., [2011]; Liu et al., [2013]; cited from earlier work
Excerpt: (§2) Table 1 Tiam1-PDZ:peptide complexes and free energies used for model fitting. | column: Exp.^a || Table 2 Tiam1-PDZ:peptide complexes and free energies not used for model fitting. | column: Exp.^a

| Substance | Exp. relative binding free energy ΔΔG |
| --- | --- |
| ENQKEYFF [Caspr4, peptide corresponding to the C-terminus of Caspr4] | 0.04 kcal/mol |
| NKDKEYYV [Neur, peptide corresponding to the C-terminus of Neurexin] | 1.25 kcal/mol |
| TKQEEFYACOOH [Sdc1, C-terminal peptide of Syndecan1, residues 303–310] | 1.21 kcal/mol |

Tested on: Tiam1 PDZ domain quadruple mutant (QM)
Test: not given
Conditions: relative to WT:Sdc1; ref Shepherd et al., [2011]; Liu et al., [2013]; cited from earlier work
Excerpt: as §2

| Substance | Exp. relative binding free energy ΔΔG |
| --- | --- |
| ENQKEYFF [Caspr4, peptide corresponding to the C-terminus of Caspr4] | -0.23 kcal/mol |
| NKDKEYYV [Neur, peptide corresponding to the C-terminus of Neurexin] | 0.32 kcal/mol |
| TKQEEFYACOOH [Sdc1, C-terminal peptide of Syndecan1, residues 303–310] | 0.89 kcal/mol |

Tested on: Tiam1 PDZ domain L915F,L920V
Test: not given
Conditions: relative to WT:Sdc1; ref Shepherd et al., [2011]; Liu et al., [2013]; cited from earlier work
Excerpt: as §2

| Substance | Exp. relative binding free energy ΔΔG |
| --- | --- |
| ENQKEYFF [Caspr4, peptide corresponding to the C-terminus of Caspr4] | 0.62 kcal/mol |
| NKDKEYYV [Neur, peptide corresponding to the C-terminus of Neurexin] | 1.08 kcal/mol |
| TKQEEFYACOOH [Sdc1, C-terminal peptide of Syndecan1, residues 303–310] | 1.32 kcal/mol |

Molecular target: T1, wildtype Tiam1 PDZ domain (WT)
Test: Fluorescence anisotropy binding of dansylated peptides
Conditions: relative to WT:Sdc1, this work, dansylated peptide 5–10 μM, 20 mM sodium phosphate, 50 mM NaCl, pH 6.8, 25°C, triplicate
Protocol: Typically, E. coli cells were grown at 37°C in Luria-Bertani (LB) medium supplemented with ampicillin (100 μg/mL) under vigorous agitation until an A600 of 0.6–0.8 was reached. Cultures were subsequently cooled to 18°C and protein expression was induced by the addition of isopropyl 1-thio-β-d-galactopyranoside (IPTG) to 1 mM final concentration. Induced cells were incubated for an additional 16–18 h at 18°C and harvested by centrifugation. The Tiam1 PDZ domain was purified by nickel-chelate (GE-Healthcare) and size-exclusion chromatography (Shepherd et al., [2010]). […] Undigested protein, cleaved His6 tag and His-tagged rTEV were separated from Tiam1 PDZ domain by nickel-chelate chromatography. The final yield was 20 mg of PDZ protein (>98% pure as judged by SDS-PAGE) from 1 L of culture. Samples were used immediately or lyophilized and stored at […].
All peptides were chemically synthesized by GenScript Inc. (Piscataway, NJ) and judged to be >95% pure based on analytical HPLC and mass spectrometry. Peptides were dansylated at their N-terminus. Peptide concentrations were determined by absorbance measurements (A280) using their predicted extinction coefficient. The peptides used in this study were Syndecan1 (Sdc1) point mutants and double mutants: Sdc1 (residues 303–310 of the full Syndecan protein: TKQEEFYACOOH), Sdc1-A0M (residues 303–310: TKQEEFYMCOOH), Sdc1-F2R (residues 303–310: TKQEERYACOOH), Sdc1-F2R/A0M (residues 303–310: TKQEERYMCOOH), Sdc1-F2A (residues 303–310: TKQEEAYACOOH), Sdc1-F2N (residues 303-310: TKQEENYACOOH), Sdc1-F2I (residues 303–310: TKQEEIYACOOH), Sdc1-E4L (residues 303–310: TKQLEFYACOOH), Sdc1-E3D/Y1T (residues 303–310: TKQEDFTACOOH), and Sdc1-E3T/Y1K (residues 303–310: TKQETFKACOOH). Notice that here and below, for the Sdc1 and other peptides, we number residue positions counting backwards from the peptide C-terminus (position 0). Thus, Sdc1-F2R is mutated at the third position from the C-terminus, which is usually called “position −2” (Shepherd and Fuentes, [2011]). We drop the negative sign to keep the notation simple.
Fluorescence anisotropy was used to monitor the binding of Tiam1 PDZ domain proteins to dansylated peptides. Anisotropy measurements were carried out on a Fluorolog3 (Jobin Yvon, Horiba, NJ) spectrofluorimeter (γex = 340 and γem = 550 nm). All data collection, fitting, and thermodynamic analyses were performed as previously described (Shepherd et al., [2011]). Binding experiments were conducted in 1.3 mL of binding buffer (20 mM sodium phosphate, 50 mM NaCl and pH 6.8) containing peptide at a concentration of 5–10 μM. Measurements were made in a 2 mL quartz cuvette that was stirred and maintained at constant 25°C temperature. The slit widths for the control of excitation and emission intensity were adjusted to the signal-to-noise ratio and maximum intensity and set in the range of 6–9 nm. A ratio of 1:100 and 1:10 dilutions of the stock PDZ protein solution (~1 mM) were prepared in binding buffer. For each experiment, 20–30 individual titration steps were performed until the sample had little or no change in anisotropy. The change in fluorescence anisotropy was plotted against protein concentration and fit to a standard hyperbolic ligand-binding curve. Each titration was carried out in triplicate.

| Substance | Exp. relative binding free energy ΔΔG |
| --- | --- |
| TKQEENYACOOH [Sdc1-F2N, Sdc1 point mutant, Asn at position 2] | ≥ 1.32 kcal/mol |
| TKQEEIYACOOH [Sdc1.F2I, Sdc1 point mutant, Ile at position 2] | 0.80^e kcal/mol and 0.80 kcal/mol |
| TKQETFKACOOH [Sdc1.E3T, Y1K, Sdc1 double mutant] | 1.33^e kcal/mol |
| TKQEEAYACOOH [Sdc1-F2A, Sdc1 point mutant, Ala at position 2] | ≥ 1.32 kcal/mol |
| TKQEEFYMCOOH [Sdc1.A0M, Sdc1 point mutant, Met at position 0] | 1.56^d kcal/mol and 1.56 kcal/mol |
| TKQEDFTACOOH [Sdc1.E3D, Y1T, Sdc1 double mutant] | 0.87^e kcal/mol |
| TKQEERYACOOH [Sdc1-F2R, Sdc1 point mutant, Arg at position 2] | ≥ 1.32 kcal/mol |
| TKQLEFYACOOH [Sdc1.E4L, Sdc1 point mutant, Leu at position 4] | 0.56^e kcal/mol |

Same assay, conditions: relative to WT:Sdc1, this work, dansylated peptide 5–10 μM, 20 mM sodium phosphate, 50 mM NaCl, pH 6.8, 25°C, triplicate, listed as Sdc1-E3T,Y1K

| Substance | Exp. relative binding free energy ΔΔG |
| --- | --- |
| TKQETFKACOOH [Sdc1.E3T, Y1K, Sdc1 double mutant] | 1.33 kcal/mol |

Same assay, conditions: this work

| Substance | affinity for WT (in words) |
| --- | --- |
| TKQEERYACOOH [Sdc1-F2R, Sdc1 point mutant, Arg at position 2] | does not have a detectable affinity |
